From patent US11952379B2, “Small molecule modulators of PAR2 and uses thereof” (Arizona Board of Regents on Behalf of the University of …, priority 2018, dated 2024)

How the values were obtained:
PAR2 [1] = biological target: T1, PAR2 (Mus musculus, UniProt P55086); assay: Mechanical hypersensitivity / paw withdrawal response to PAR2 agonist 2AT injected into the hindpaw; format: in vivo; details: mice
T1 construct: from tissue; host or cells: live mice, hindpaw
T1 sequence (P55086 26-399): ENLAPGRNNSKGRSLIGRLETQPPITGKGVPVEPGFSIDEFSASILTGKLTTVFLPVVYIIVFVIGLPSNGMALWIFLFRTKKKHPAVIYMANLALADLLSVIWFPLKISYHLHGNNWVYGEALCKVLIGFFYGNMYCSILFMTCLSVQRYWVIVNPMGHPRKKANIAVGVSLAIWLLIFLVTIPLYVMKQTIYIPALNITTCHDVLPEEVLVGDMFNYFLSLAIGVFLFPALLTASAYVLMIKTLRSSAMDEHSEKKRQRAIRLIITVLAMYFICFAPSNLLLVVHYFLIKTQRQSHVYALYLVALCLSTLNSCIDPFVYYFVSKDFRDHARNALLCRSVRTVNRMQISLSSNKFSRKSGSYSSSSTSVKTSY
Experimental: Experiments were conducted to test C781 in vivo in mice for its ability to block mechanical hypersensitivity (a pain measure) in response to a PAR2 agonist (2AT-LIGRL, also known as 2AT).
Animals were injected with 2at (black), 2at+C781(yellow), or C781 alone (green).
Animals were systemically treated with C781 or control and then local injected with 2at (black with control; yellow with C781) or with vehicle alone (green). […] This is important because previous PAR2 antagonists have not had systemic bioavailability and have only worked with very high doses via intravenous injection.

[2] = test system: PAR2-dependent MAPK signaling; assay: PAR2-dependent MAPK signaling (MAPK phosphorylation); format: cell-based
[3] = test system: PAR2-dependent Ca^2+ signaling; assay: PAR2-dependent Ca2+ signaling; format: cell-based
Experimental: Addition of 1.75 μM of the potent PAR2 agonist 2at-LIGRL-NH2 (C134) induced Ca^2+ signaling in 50% of the cells within the experiment.

PAR2 [4] = biological target: T2, PAR2 (Homo sapiens, UniProt P55085); assay: Inhibition of PAR2 response induced by 2at-LIGRL-NH2 (FIG. 1); format: cell-based; details: antagonist against agonist 2at-LIGR1-NH2
T2 sequence (P55085 26-397): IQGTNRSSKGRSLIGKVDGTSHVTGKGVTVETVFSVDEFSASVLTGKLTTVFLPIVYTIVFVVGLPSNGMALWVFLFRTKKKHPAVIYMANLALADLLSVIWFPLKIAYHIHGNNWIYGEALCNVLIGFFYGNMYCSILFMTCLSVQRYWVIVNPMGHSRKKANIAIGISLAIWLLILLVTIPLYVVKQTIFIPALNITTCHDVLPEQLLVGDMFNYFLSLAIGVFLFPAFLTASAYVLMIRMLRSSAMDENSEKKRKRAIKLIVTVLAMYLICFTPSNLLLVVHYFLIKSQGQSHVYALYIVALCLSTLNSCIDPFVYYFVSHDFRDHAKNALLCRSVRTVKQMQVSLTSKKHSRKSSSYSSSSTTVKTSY

PAR2 [5] = biological target: T1, PAR2; assay: 2AT-evoked hyperalgesic priming in the hindpaw; format: in vivo; details: given locally into the mouse hindpaw; FIG. 3

Row | paw withdrawal response (pain) induced by agonist (PAR2 [1]; 2at injected into hindpaw, lower numbers indicative of pain) | concentration at which the 2at-LIGR1-NH2-induced PAR2 response was fully limited / compound was effective (PAR2 [4]) [nM] | effect on 2at-induced paw withdrawal response (pain) (PAR2 [1]; C781 given intraperitoneally 30 min prior to 2AT injection into the hindpaw, FIG. 4) | effect on paw withdrawal response of compound alone (PAR2 [1]; C781 injected locally with vehicle alone (no 2at), FIG. 2) | effect on 2at-induced paw withdrawal response (pain) (PAR2 [1]; C781 locally administered into hindpaw together with 2at, FIG. 2) | effect on paw withdrawal response after vehicle injection (PAR2 [1]; systemically administered C781, local vehicle alone, FIG. 4) | effect on 2AT-evoked hyperalgesic priming (PAR2 [5]) | IC50 ([2]; response induced by 600 nM 2at-LIGRL-NH2 (100% response), 95% CI: 3.4 μM-21 μM, FIG. 5, read-out: IC50 for reduction of PAR2-dependent MAPK phosphorylation) [µM] | Molecule | induction of MAPK phosphorylation ([2]; agonist at 600 nM, set as 100% response) | cells showing Ca2+ signaling ([3]; agonist at 1.75 μM, percent of the cells within the experiment) [%] | effect on PAR2-dependent Ca2+ signaling ([3]; administered with 1.75 μM 2at-LIGRL-NH2 (C134), FIG. 6)
1 | induced a rapid withdrawal response | – | – | – | – | – | – | – | 2-aminothiazol-LIGRL-NH2 [2at-LIGRL-NH2, reference compound] | induced significant phosphorylation of MAPK | 50 | –
2 | – | 100 to 300 | – | – | – | – | – | – | CC(C)CC(=O)N1C[C@H](NC(=O)c2csc(N)n2)C(=O)N2C1CN(CC1CCNCC1)C(=O)[C@@H]2CC(C)C (stereo partly drawn) [C732] | – | – | –
3 | – | 30 to 300 | reduced the 2at response | had no effect | reduced the 2at response | had no effect on vehicle treatment | blocked 2AT-evoked hyperalgesic priming | 8.5 | CC(C)CC(=O)N[C@H]1CN(C(=O)c2ccco2)C2CN(CC3CCNCC3)C(=O)[C@H](CC(C)C)N2C1=O (stereo partly drawn) [C781] | – | – | no significant effect
